Measured values taken from patent US11713338B2, “Cyclic peptides multimers targeting α-4-β-7 integrin” (priority 2016, dated 2023).
Like-named read-outs stand apart in the source and are kept apart here.

Biological target: T1, integrin α4β7 on α4β7+ memory T helper cells (Homo sapiens, UniProt P13612+P26010)
T1 construct: endogenous in cells
T1 sequence (P13612 34-1032): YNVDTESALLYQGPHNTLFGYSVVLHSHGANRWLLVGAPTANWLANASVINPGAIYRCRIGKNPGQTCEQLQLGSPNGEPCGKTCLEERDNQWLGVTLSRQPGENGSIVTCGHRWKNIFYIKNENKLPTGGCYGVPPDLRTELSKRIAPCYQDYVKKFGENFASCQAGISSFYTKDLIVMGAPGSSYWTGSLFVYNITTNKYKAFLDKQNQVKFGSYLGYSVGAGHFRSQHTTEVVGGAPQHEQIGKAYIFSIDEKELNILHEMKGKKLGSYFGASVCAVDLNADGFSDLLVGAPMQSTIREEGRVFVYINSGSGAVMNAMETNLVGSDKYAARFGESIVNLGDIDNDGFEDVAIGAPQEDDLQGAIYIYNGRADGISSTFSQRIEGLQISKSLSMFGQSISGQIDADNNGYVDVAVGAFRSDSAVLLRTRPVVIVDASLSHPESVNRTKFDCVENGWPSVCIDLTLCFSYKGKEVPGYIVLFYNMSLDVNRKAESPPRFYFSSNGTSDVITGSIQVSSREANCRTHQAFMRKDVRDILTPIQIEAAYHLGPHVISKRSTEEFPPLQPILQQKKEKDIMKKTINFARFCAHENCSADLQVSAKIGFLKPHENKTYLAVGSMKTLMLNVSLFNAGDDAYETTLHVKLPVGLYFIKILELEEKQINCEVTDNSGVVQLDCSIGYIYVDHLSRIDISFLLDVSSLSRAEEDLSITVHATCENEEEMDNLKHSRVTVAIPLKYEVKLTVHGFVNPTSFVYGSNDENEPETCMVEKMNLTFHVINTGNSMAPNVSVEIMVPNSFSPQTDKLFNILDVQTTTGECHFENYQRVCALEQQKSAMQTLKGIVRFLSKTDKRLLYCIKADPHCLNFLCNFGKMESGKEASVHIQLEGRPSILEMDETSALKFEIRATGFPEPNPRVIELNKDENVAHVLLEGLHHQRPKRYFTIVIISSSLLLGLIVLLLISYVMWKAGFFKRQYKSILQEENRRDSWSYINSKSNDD
T1 sequence (P26010 20-798): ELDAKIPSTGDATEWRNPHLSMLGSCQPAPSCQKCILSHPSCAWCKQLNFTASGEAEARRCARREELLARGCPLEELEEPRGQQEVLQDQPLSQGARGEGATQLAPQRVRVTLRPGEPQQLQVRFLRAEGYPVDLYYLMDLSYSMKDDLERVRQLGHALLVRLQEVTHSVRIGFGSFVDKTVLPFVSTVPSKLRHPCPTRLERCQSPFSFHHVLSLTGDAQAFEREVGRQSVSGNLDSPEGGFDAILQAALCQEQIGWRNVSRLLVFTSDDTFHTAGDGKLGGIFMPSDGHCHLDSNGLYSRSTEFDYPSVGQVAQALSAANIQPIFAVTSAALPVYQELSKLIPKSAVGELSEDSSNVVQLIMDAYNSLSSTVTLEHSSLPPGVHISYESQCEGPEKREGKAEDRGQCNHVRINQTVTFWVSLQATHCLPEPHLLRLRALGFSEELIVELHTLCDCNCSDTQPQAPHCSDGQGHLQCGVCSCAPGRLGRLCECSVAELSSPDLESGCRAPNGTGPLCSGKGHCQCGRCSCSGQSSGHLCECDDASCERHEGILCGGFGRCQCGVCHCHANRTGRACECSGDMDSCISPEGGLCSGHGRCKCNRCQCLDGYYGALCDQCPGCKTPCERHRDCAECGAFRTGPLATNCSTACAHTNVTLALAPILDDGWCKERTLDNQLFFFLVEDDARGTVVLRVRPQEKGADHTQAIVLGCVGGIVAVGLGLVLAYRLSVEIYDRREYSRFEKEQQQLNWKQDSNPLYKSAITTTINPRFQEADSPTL
Experiment: MAdCAM-1 competition / receptor occupancy assay in human whole blood, α4β7-positive Th memory cells
Format: cell-based
Method: Analyte Competition Assay in CD4+ Integrin α4+β7-Lo Memory T Cells
Receptor occupancy in primary cells was determined by measuring the amount of biotinylated human recombinant MAdCAM-1-FC or human recombinant VCAM-1-Fc bound to selected cell populations using flow cytometry. Human recombinant MAdCAM-1-FC or human recombinant VCAM-1-FC (R&D systems) were biotinylated using commercially available reagents and protocol (Pierce).
Whole blood was collected from human donors in sodium heparin tubes. […] Cells were washed twice with 1 mL of 1X DPBS calcium magnesium free (CMF) (ThermoFisher Scientific) and resuspended in 100 microL of DPBS CMF.
Biotinylated human recombinant MAdCAM-1-Fc or VCAM-1-Fc were added at saturating concentration and incubated at room temperature for 1 hour. […] Cells were washed with 1 mL stain buffer-FBS (BD Biosciences) and resuspended in 100 μl stain Buffer-FBS (BD Biosciences) containing 4 mM MnCl2. […] Cells were then washed with 1 mL stain buffer-FBS and resuspended in […] stain buffer-FBS. The cells were incubated in the dark for 30 minutes at room temperature with 1 ul Streptavidin APC (Biolegend 0.2 mg/ml) and a panel of antibodies for the detection of memory T helper a4b7-positive cells subset. And amount of 5.0 ul each of the following antibodies were used; CD45 FITC (BioLegend 200 ug/ml), CD29 APC Cy7 (BioLegend 100 ug/ml), Integrin beta7 PE, (BioLegend concentration 50 μg/mL), CD49d V421 (BioLegend 50 μg/mL), CD3 V510 (BioLegend 30 μg/mL), CD4 PECy7 (BioLegend 100 μg/mL), CD45RO PerCP, BioLegend 200 μg/mL). The cells were then washed with stain-buffer-FBS and resuspended in 150 microL stain buffer-FBS for acquisition on the flow cytometer (BD FACSCanto™ flow cytometer and BDFACSDiva™ software). FACS data was acquire by electronic gating on the basis of forward versus side scatter, The cytometer was set to collect 20,000 events in each tube. Cell population were determined using the following markers, CD45+, CD3+, CD4+, CD45RO+, CD49d+, integrin b7, biotinylated ligands.
Compound receptor occupancy was defined as the decrease in the number of integrin β7+ or integrin β7-lo cells binding biotinylated rhMAdCAM-1 or rhVCAM-1, respectively.
Receptor occupancy was calculated with the following equation: 100−((% ligand-positive cells with compound/% ligand-positive cells DMSO)*100) In Vivo T Lymphocyte Trafficking Analysis in Mouse Model of Colitis

[1] = human whole blood, inhibition of MAdCAM-1 binding to α4β7-positive Th memory cells, FACS, read-out: MADCAM FACS α4β7 Th mem

CC(C)C[C@@H]1NC(=O)C[C@H](CCCCN)N(C)C(=O)[C@H](CCCCNC(=O)CCCCCCCC(=O)NCCCC[C@@H]2NC(=O)[C@@H]3CCCN3[C@H](C(=O)NC(C)(C)C)[C@H](C)NC(=O)[C@H]([C@@H](C)O)NC(=O)[C@H](CC(=O)O)NC(=O)[C@H](CC(C)C)NC(=O)C[C@H](CCCCN)N(C)C2=O)NC(=O)[C@@H]2CCCN2[C@H](C(=O)NC(C)(C)C)[C@H](C)NC(=O)[C@H]([C@@H](C)O)NC(=O)[C@H](CC(=O)O)NC1=O [Compound 533]
IC50 [1]: 46 nM

CC(C)C[C@@H]1NC(=O)c2ccc(-c3ccc(N4CCN(CCC(=O)N5CCN(c6ccc(-c7ccc8cc7CNC(=O)[C@@H]7CCCN7[C@H](C(=O)NC(C)(C)C)[C@H](C)NC(=O)[C@H]([C@@H](C)O)NC(=O)[C@H](CC(=O)O)NC(=O)[C@H](CC(C)C)NC8=O)cc6)CC5)CC4)cc3)c(c2)CNC(=O)[C@@H]2CCCN2[C@H](C(=O)NC(C)(C)C)[C@H](C)NC(=O)[C@H]([C@@H](C)O)NC(=O)[C@H](CC(=O)O)NC1=O [Compound 482]
IC50 [1]: 30 nM

CC(C)C[C@@H]1NC(=O)c2ccc(-c3ccc(N4CCN(C(=O)c5ccc(-c6ccc(C(=O)N7CCN(c8ccc(-c9ccc%10cc9CNC(=O)[C@@H]9CCCN9[C@H](C(=O)NC(C)(C)C)[C@H](C)NC(=O)[C@H]([C@@H](C)O)NC(=O)[C@H](CC(=O)O)NC(=O)[C@H](CC(C)C)NC%10=O)cc8)CC7)cc6)cc5)CC4)cc3)c(c2)CNC(=O)[C@@H]2CCCN2[C@H](C(=O)NC(C)(C)C)[C@H](C)NC(=O)[C@H]([C@@H](C)O)NC(=O)[C@H](CC(=O)O)NC1=O [Compound 474]
IC50 [1]: 74 nM

CC(C)C[C@@H]1NC(=O)c2ccc(-c3ccc(N4CCN(Cc5cccc(CN6CCN(c7ccc(-c8ccc9cc8CNC(=O)[C@@H]8CCCN8[C@H](C(=O)NC(C)(C)C)[C@H](C)NC(=O)[C@H]([C@@H](C)O)NC(=O)[C@H](CC(=O)O)NC(=O)[C@H](CC(C)C)NC9=O)cc7)CC6)c5)CC4)cc3)c(c2)CNC(=O)[C@@H]2CCCN2[C@H](C(=O)NC(C)(C)C)[C@H](C)NC(=O)[C@H]([C@@H](C)O)NC(=O)[C@H](CC(=O)O)NC1=O [Compound 499]
IC50 [1]: 41 nM

CC(C)C[C@@H]1NC(=O)C[C@H](CCCCN)N(C)C(=O)[C@H](CCCCNC(=O)c2ccccc2-c2ccccc2C(=O)NCCCC[C@@H]2NC(=O)[C@@H]3CCCN3[C@H](C(=O)NC(C)(C)C)[C@H](C)NC(=O)[C@H]([C@@H](C)O)NC(=O)[C@H](CC(=O)O)NC(=O)[C@H](CC(C)C)NC(=O)C[C@H](CCCCN)N(C)C2=O)NC(=O)[C@@H]2CCCN2[C@H](C(=O)NC(C)(C)C)[C@H](C)NC(=O)[C@H]([C@@H](C)O)NC(=O)[C@H](CC(=O)O)NC1=O [Compound 535]
IC50 (human whole blood, FIG. 7, read-out: IC50, MAdCAM-1 competition on α4β7-positive primary cells): 76 nM | IC50 [1]: 77 nM

CC(C)C[C@@H]1NC(=O)C[C@H](CCCCN)N(C)C(=O)[C@H](CCCCNC(=O)CCCCCCCCC(=O)NCCCC[C@@H]2NC(=O)[C@@H]3CCCN3[C@H](C(=O)NC(C)(C)C)[C@H](C)NC(=O)[C@H]([C@@H](C)O)NC(=O)[C@H](CC(=O)O)NC(=O)[C@H](CC(C)C)NC(=O)C[C@H](CCCCN)N(C)C2=O)NC(=O)[C@@H]2CCCN2[C@H](C(=O)NC(C)(C)C)[C@H](C)NC(=O)[C@H]([C@@H](C)O)NC(=O)[C@H](CC(=O)O)NC1=O [Compound 530]
IC50 [1]: 33 nM | IC50 (whole blood from a single donor, FIG. 10, read-out: IC50, inhibition of MAdCAM-1 binding to primary cells): 87 to 141 nM

CC(C)C[C@@H]1NC(=O)c2ccc(-c3ccc(N4CCN(C(=O)c5ccc(-c6cccc(C(=O)N7CCN(c8ccc(-c9ccc%10cc9CNC(=O)[C@@H]9CCCN9[C@H](C(=O)NC(C)(C)C)[C@H](C)NC(=O)[C@H]([C@@H](C)O)NC(=O)[C@H](CC(=O)O)NC(=O)[C@H](CC(C)C)NC%10=O)cc8)CC7)n6)nc5)CC4)cc3)c(c2)CNC(=O)[C@@H]2CCCN2[C@H](C(=O)NC(C)(C)C)[C@H](C)NC(=O)[C@H]([C@@H](C)O)NC(=O)[C@H](CC(=O)O)NC1=O [Compound 466]
IC50 [1]: 164 nM

CC(C)C[C@@H]1NC(=O)c2ccc(-c3ccc(N4CCN(C(=O)c5ccccc5-c5ccccc5C(=O)N5CCN(c6ccc(-c7ccc8cc7CNC(=O)[C@@H]7CCCN7[C@H](C(=O)NC(C)(C)C)[C@H](C)NC(=O)[C@H]([C@@H](C)O)NC(=O)[C@H](CC(=O)O)NC(=O)[C@H](CC(C)C)NC8=O)cc6)CC5)CC4)cc3)c(c2)CNC(=O)[C@@H]2CCCN2[C@H](C(=O)NC(C)(C)C)[C@H](C)NC(=O)[C@H]([C@@H](C)O)NC(=O)[C@H](CC(=O)O)NC1=O [Compound 517]
EC50 (human whole blood, FIG. 7, read-out: EC50, competition with saturating amount of MAdCAM): 38 nM | IC50 [1]: 43 nM

CC(C)C[C@@H]1NC(=O)c2ccc(-c3ccc(N4CCN(C(=O)CC[C@H](N)C(=O)N5CCN(c6ccc(-c7ccc8cc7CNC(=O)[C@@H]7CCCN7[C@H](C(=O)NC(C)(C)C)[C@H](C)NC(=O)[C@H]([C@@H](C)O)NC(=O)[C@H](CC(=O)O)NC(=O)[C@H](CC(C)C)NC8=O)cc6)CC5)CC4)cc3)c(c2)CNC(=O)[C@@H]2CCCN2[C@H](C(=O)NC(C)(C)C)[C@H](C)NC(=O)[C@H]([C@@H](C)O)NC(=O)[C@H](CC(=O)O)NC1=O [Compound 494]
IC50 [1]: 128 nM

CC(C)C[C@@H]1NC(=O)c2ccc(-c3ccc(N4CCN(C(=O)c5ccc(C(=O)N6CCN(c7ccc(-c8ccc9cc8CNC(=O)[C@@H]8CCCN8[C@H](C(=O)NC(C)(C)C)[C@H](C)NC(=O)[C@H]([C@@H](C)O)NC(=O)[C@H](CC(=O)O)NC(=O)[C@H](CC(C)C)NC9=O)cc7)CC6)s5)CC4)cc3)c(c2)CNC(=O)[C@@H]2CCCN2[C@H](C(=O)NC(C)(C)C)[C@H](C)NC(=O)[C@H]([C@@H](C)O)NC(=O)[C@H](CC(=O)O)NC1=O [Compound 470]
IC50 [1]: 81 nM
